Read-outs that look alike come from different tables or passages of the source.
Experiments:
MPF activity = experiment: M-phase promoting factor inhibition in metaphase-arrested Xenopus egg extracts; assay type: biochemical; conditions: 1.5 h after addition
Experimental: (§1) Metaphase-arrested Xenopus egg extracts were prepared as described previously by Blow “J. Cell Biol.” 1993, 122:993 and stored in liquid nitrogen. Demembranated Xenopus sperm nuclei were prepared as described by Blow & Laskey “Cell” 1986;47:577.
(§2) At concentrations of cdk inhibitors (see Table 6) ranging from 0.1-2 μM, chromosomes remained highly condensed and no nuclear envelope was visible. At 4-6 μM and higher concentrations, interphase nuclei appeared with partially decondensed chromatin and an intact nuclear envelope. […] For the inhibition effect to become detectable, the first 15-min incubation of the interphase extract is probably sufficient.

DNA synthesis = DNA synthesis in Xenopus egg extracts ([α-32P]dATP incorporation); assay type: biochemical; conditions: [α-32P]dATP incorporation after 3 h; read-out: Inhibition of DNA synthesis IC50
Experimental: as §1, §2

CDC2 = biological target: T1, CDC2 (Homo sapiens, UniProt P06493); experiment: p34cdc2 (CDC2) kinase inhibition assay, histone H1 substrate; assay type: biochemical; conditions: Table 5, CDC2 activity in cell free system
T1 construct: made in house; host or cells: Sf9 insect cells, baculovirus co-infection
T1 sequence (P06493 whole entry, species assumed): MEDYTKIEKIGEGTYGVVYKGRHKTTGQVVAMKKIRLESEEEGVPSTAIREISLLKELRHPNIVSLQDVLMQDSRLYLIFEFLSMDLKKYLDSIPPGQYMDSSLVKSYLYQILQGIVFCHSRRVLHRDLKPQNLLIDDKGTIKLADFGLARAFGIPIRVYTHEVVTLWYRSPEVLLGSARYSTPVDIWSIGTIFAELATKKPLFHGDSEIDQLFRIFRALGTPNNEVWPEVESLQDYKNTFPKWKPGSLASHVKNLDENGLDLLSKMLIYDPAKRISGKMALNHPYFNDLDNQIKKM
T1 sequence (P14635 whole entry partner, species assumed): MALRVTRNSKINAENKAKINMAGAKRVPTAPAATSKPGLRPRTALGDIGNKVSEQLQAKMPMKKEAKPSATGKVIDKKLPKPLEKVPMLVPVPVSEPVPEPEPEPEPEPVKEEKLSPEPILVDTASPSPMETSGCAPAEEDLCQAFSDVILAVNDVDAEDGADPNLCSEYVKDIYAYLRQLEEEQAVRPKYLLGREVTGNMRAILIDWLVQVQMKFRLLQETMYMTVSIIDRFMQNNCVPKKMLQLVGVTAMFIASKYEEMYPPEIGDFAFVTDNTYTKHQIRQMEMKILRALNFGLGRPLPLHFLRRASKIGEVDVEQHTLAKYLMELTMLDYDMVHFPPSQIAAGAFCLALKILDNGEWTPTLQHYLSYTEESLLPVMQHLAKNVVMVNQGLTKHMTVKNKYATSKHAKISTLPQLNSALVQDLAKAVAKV
Experimental: Cyclin-dependent kinases (p34^cdc2, p33^cdk2, p33^cdk4 and cyclins (cyclin B, E and DI) are produced in Sf9 insect cells coinfected with appropriate baculoviral constructs. The cells are harvested 68-72 hrs post infection in lysis buffer for 30 min on ice and the soluble fraction is recovered by centrifugation at 14.000 g for 10 min. The protein extract is stored at −80° C.
To carry out experiments on kinetics under linear conditions, the final point test system for kinase activity measurement is used. The kinase is added to the reaction mixture in such a way that linear activity is obtained with respect to the concentration of enzyme and with respect to time.
Inhibition of p33^cdk4 kinase is determined with Rb-GST (0.2 mg/ml) as the substrate. Kinase activity is determined at 30° C. in kinase buffer.
Tested compounds are usually dissolved to 100 mM solutions in DMSO, the final concentration of DMSO in reaction mixture never exceeds 1%. The controls contain suitable dilutions of DMSO. After 10 min, the addition of 3×SDS sample buffer stops the incubations. […] The measurement of kinase activity is done using digital image analysis. The kinase activity is expressed as a percentage of maximum activity, the apparent inhibition constants are determined by graphic analysis. Kinase buffer: 50 mM Hepes pH 7.4, 10 mM MgCl21 5 mM EGTA, 10 mM 2-glycerolphosphate,

[1] = tested on: PHA-stimulated lymphocytes (PBMC); experiment: cell number of PHA-stimulated lymphocytes (PBMC), flow cytometry; assay type: cell-based, human; conditions: 96 hours, in the presence of IL-2
Experimental: Human peripheral blood mononuclear cells were isolated by density gradient (Ficoll-Hypaque) (LSM, ICN Biomedicals Inc.). PBMC were stimulated with 5 μg/ml phytohemaglutinin A (PHA) (Sigma) during 24-48 hours in IMDM supplemented with 10% FCS (IMDM/10% FCS) at 37° C. After washing off the PHA, PBMC were incubated with interleukin-2 (IL-2) (10 U/ml) (Genzyme).
(§3) Cells were plated at 10000 per well in 200 μl IMDM medium and incubated with 0-50 μM of the compounds of the invention (Table 5), by addition of the drugs directly to the culture medium and incubated at 37° C. for 96 hours. Absolute cell number was determined by addition of a known concentration of Fluoresbrite microspheres (FITC) (Polysciences, Inc.). The absolute number of cells per well was calculated as: {(total number of beads added per well)/(number of beads measured)}×(number of measured cells in the gate of interest). All analyses were performed with a FACScan (BD), using CELLQuest software (Becton Dickinson).
The novel compounds were tested for cytotoxicity on PHA-stimulated lymphocytes (PBMC), as one of the normal counterparts of the cell lines. Cells were grown for 96 hours in the presence of IL-2 and different concentrations of the novel compounds and cell number was counted on the flow cytometer.

[2] = tested on: adult bone marrow CD34+CD38- cells; experiment: pre-CFU assay; assay type: cell-based, human; conditions: for IC50: 14 day liquid culture, total clonogenic output after secondary methylcellulose culture
Source text: […]. Cells with low-to-medium forward and low side scatter, highly positive green (CD34) fluorescence, and an orange (CD38) fluorescence signal lower than the mean fluorescence of cells labeled with an irrelevant isotype-matched control antibody+2 standard deviations were retained as CD34^+CD38^− cells and used in pre-CFU assays.
Pre-CFU assays were initiated by performing liquid cultures of CD34^+CD38^− cells in duplicate in 96-well flat-bottomed plates in IMDM/10% FCS, 1% bovine serum albumin (BSA), 100 U/ml IL-1, 200 U/ml IL-6, 30 U/ml IL-3 and 100 ng/ml stem cell factor (SCF). Pre-CFU cultures were initiated with 500 CD34^+CD38^− cells/well (200 μl). After 14 days of culture at 37° C. in 7.5% O2 and 5% CO2 in a fully humidified incubator, the number of cells in each well was counted. Subsequently, the cells were harvested, washed three times in IMDM/10% FCS, and plated in duplicate at 500 cells/well (1000 μl) in secondary methylcellulose CFU cultures as described for CFU assays.
Pre-CFU were cultured starting from adult bone marrow CD34^+CD38^− cells, that had been isolated using the FCM cell sorter. Novel compounds were added at different concentrations to the primary 14 day liquid culture. IC50 was calculated from dose-response curves from total clonogenic output after secondary methylcellulose culture (Table 5).

KG1 cells = experiment: apoptosis and cell cycle in KG1 cells (fluorescence microscopy, TUNEL); assay type: cell-based, human
Experimental: Nuclear morphology of the cells was analysed with the fluorochromes Hoechst 33342 (λEx max 346 nm; λEm max 460 nm) (Sigma) prepared in phosphate-buffered saline (PBS at 0.1 mg/ml, added to the culture medium at a final concentration of 2 μg/ml and ethidium bromide (EB) (λEx max 540 nm; λEm max 625 nm) (Sigma) prepared in PBS at 100 μg/ml and added to the culture medium at a final concentration of 2 μg/ml (Lizard, 1995). Hundred cells were counted for each sample and percentage of apoptosis was determined.
Control and novel compound-treated cell cultures were washed with PBS and fixed in […] (pH 7.4) for 15 minutes on ice. After washing in PBS, cells were permeabilized in 70% cold (−20° C.) ethanol and transferred to 4° C. for at least 1 hour. After rehydratation in PBS, cells were labeled with 50 μl/well TUNEL reaction mixture (Boehringer Mannheim). Cells were incubated in this solution at 37° C. for 40 minutes, washed in PBS and resuspended in 500 μl PBS containing 5 μg/ml EB and 0.1% RNAse. After 30 minutes of incubation at 4° C., green (FITC-dUTP) and red (EB-DNA) fluorescence of individual cells was measured on a FACscan flow cytometer (Gorczyca, 1993). Negative control (fixed and permeabilized cells incubated with 50 μl label solution per well without terminal transferase, instead of TUNEL reaction mixture) and positive control (fixed and permeabilized cells incubated with DNase I (100 μg/ml) that induces DNA strand breaks) were included in each experimental set-up.
Flow cytometric detection of apoptosis combined with DNA staining can identify apoptotic cells and simultaneously evaluate their position in the cell cycle. This technique was used to provide infomation about the possible cell cycle specific initiation of apoptosis by the tested compounds. If more than 2% of apoptotic cells were detected by the TUNEL method and the absolute number of acquired apoptotic events exceeded 2000, DNA content was simultaneously measured. Within the apoptotic population, analysis and calculation of the different cell cycle phases was carried out by an iterative curve fitting procedure (ModFit LT cell cycle analysis sofware from Verity software house, INC).
Viable, apoptotic, necrotic (=primary necrosis, not following apoptosis) and secondarily necrotic cells (=late apoptotis, evolving to necrosis) were scored differentially after 6, 12, 24, 48 and 72 hours of exposure to novel compounds. For the three products a different apoptosis-inducing pattern could be observed. Apoptosis induction occurs fast after incubation with P23 and P28 but slower after incubation with P27.
Flow cytometric detection of apoptosis and cell cycle analysis: The induction of apoptotic death of KG1 cells by the novel compounds was confirmed using the TUNEL reaction technique (FIG. 5). […] Incubation of KG1 cell line with P27 results in detectable apoptosis after 24 hours. Percentage of apoptotic cells in G0-G1 increases with time, while the number of apoptotic cells in S+G2/M phases decreases. […] After 6 and 12 hours of incubation the apoptotic population seems mainly to evolve from S phase.

[3] = tested on: CD34+ hematopoietic progenitors (HPC) from adult bone marrow; experiment: myeloid colony-forming unit (CFU) assay; assay type: cell-based, human; conditions: for IC50: 14 days, methylcellulose, total colony output
[4] = tested on: myeloid leukemia KG1 cell line; experiment: cell growth of KG1 cell line, flow cytometric cell count; conditions: for IC50: read-out: KGI IC50
[5] = tested on: T-lymphocyte leukemia Molt3 cell line; experiment: cell growth of Molt3 cell line, flow cytometric cell count; assay type: cell-based, human; conditions: 96 hours of culture
Experimental: (§4) Cell lines: Human leukemic cell lines were obtained from the American Type Culture Collection (ATCC, Rockville, Md., USA). They were cultured in Iscove's Modified Dulbecco's Medium (IMDM) supplemented with 10% heat inactivated fetal calf serum (FCS), 200 U/ml penicillin, 200 μg/ml streptomycin and 1 μg/ml amphotericin B. Cells were cultured in a 5% CO2-95% air fully humidified incubator. For effects on clonogenic output, 1000 cells/well were plated in duplicate in methylcellulose (0.9%), supplemented with 20% FCS and cultured for 14 days.
as §3
The response of the myeloid leukemia KG1 and T-lymphocyte leukemia Molt3 cell lines to the cytostatic effect of the novel compounds was determined using the above-mentioned standardized bead suspension that was used to determine the absolute cell number by flow cytometric (FCM) measurement. Cells were grown in the presence of increasing concentrations of the compounds of the invention.

KG1 = experiment: clonogenic output of KG1 in methylcellulose; assay type: cell-based, human; conditions: 25 μM, 14 days
Experimental: as §4
Clonogenic output of KG1 was tested in methylcellulose with 25 μM of some of the novel compounds.

Compound | IC50 (MPF activity) | IC50 (DNA synthesis) | IC50 (CDC2) | IC50 ([2]; Homo sapiens, 336 h) | IC50 ([3]; Homo sapiens, 336 h) | IC50 ([4]; Homo sapiens, KG-1, 96 h) | IC50 ([5]; Homo sapiens, MOLT-3) | output of the different types of myeloid colonies (CFU-E, CFU-G and CFU-M) ([3]; scored differentially) | Colony output vs. control cultures without novel compound (KG1) | other results
CC(C)n1cnc2c(NCc3ccc(O)c(O)c3)nc(NCCCO)nc21 | 3.6 µM | 4.2 µM |  |  |  |  |  |  |  | 
CC[C@H](CCO)Nc1nc(NCc2ccc(O)c(O)c2)c2ncn(C(C)C)c2n1 | 2.8 µM | 3.5 µM |  |  |  |  |  |  |  | 
CC(C)n1cnc2c(NC(CO)c3ccccc3)nc(NCCCO)nc21 (racemic) | 1.5 µM | 1.4 µM |  |  |  |  |  |  |  | 

Now from value to molecule, other results behind:

IC50 (MPF activity) | IC50 (DNA synthesis) | IC50 (CDC2) | IC50 ([2]; Homo sapiens, 336 h) | IC50 ([3]; Homo sapiens, 336 h) | IC50 ([4]; Homo sapiens, KG-1, 96 h) | IC50 ([5]; Homo sapiens, MOLT-3) | Compound | output of the different types of myeloid colonies (CFU-E, CFU-G and CFU-M) ([3]; scored differentially) | Colony output vs. control cultures without novel compound (KG1) | other results
 |  | > 100 µM | > 25 µM | > 50 µM | 7 ± 2 µM | 14 ± 1.5 µM | CC(C)n1cnc2c(NC(CO)c3ccccc3)nc(NCCCO)nc21 (racemic) [P27, 2-(3-hydroxypropylamino)-6-[(R,S)-(1-phenyl-2-hydroxyethyl)amino]-9-isopropylpurine] | significantly lower colony output | 8% | CC50 ([1]; Homo sapiens, Lymphocyte, read-out: Lymphocytes IC50): 8 ± 0.5 µM; time of incubation after which apoptosis was detected (TUNEL) (KG1 cells; KG1): 24 h; speed of apoptosis induction (microscopic examination) (KG1 cells; KG1, 6-72 hours of exposure, FIG. 4): slower; apoptotic cells in G0-G1 phase versus control cells (KG1 cells; KG1, TUNEL with EB, FIG. 6): significant after 72 hours; CFU-M colony output ([3]; scored differentially): not significantly decreased; cell number after 6 hours of exposure, wash and 7 days in drug-free medium ([4]; KG1, compared to control without novel compounds): (some) recovery of cell number
 |  |  | > 25 µM | > 50 µM | ≥ 51 µM | ≥ 51 µM | CC(C)=CCNc1nc(NCCO)nc2c1ncn2C [P3, 2-(2-hydroxyethylamino)-6-(2-isopentenylamino)-9-methylpurine] | no significant difference | 47% | 
 |  | > 200 µM |  |  |  |  | CSc1nc(NC(C)c2ccc(O)c(O)c2)c2ncn(C(C)C)c2n1 (stereo not shown) [P16] | no significant difference | 16% | IC50 [1]: 26.5 ± 2.8 µM; activity on pre-CFU compared with CFU [2]: more active on pre-CFU than on CFU; IC50 [2]: 16 µM; IC50 [3]: > 50 µM; IC50 ([4]; 96 hours of culture): 23 ± 1.2 µM; IC50 [5]: 37 ± 7.9 µM
